Laboratory results: patent US20240018146A1, “COMPOSITIONS AND METHODS OF USING THE SAME FOR TREATMENT OF NEURODEGENERATIVE AND MITOCHONDRIAL DISEASE” (MITOKININ, INC., priority 2020, published 2024)
Where two headings read alike, the source gives them in different places.

What was measured:
Assay type in all cases: cell-based
pS129 α-syn = test: Preformed fibril (PFF) model in primary neuron culture, pS129 α-syn; conditions: increasing doses
Experimental: 4. Preformed Fibril Model
Mouse and human alpha-synuclein monomers have been sourced commercially, then pre-formed fibrils have been generated as per the detailed protocol provided by the MJFF. For in vitro experiments primary hippocampal neurons isolated from P0 pups were grown for 7 days after which PFFs at 5 ug/ml were introduced Pre-formed fibrils will be introduced via stereotactic injection into the striatum of wt (C57BL/6J, Jax #000664) and transgenic A53T mice (B6;C3-Tg(Prnp-SNCA*A53T)83Vle/J, Jax #004479). Cohorts of drug-treated (oral gavage) and untreated animals will then be allowed to age for up to 6 months, at which point they will be sacrificed and perfused. Brains will be removed and fixed, then sectioned for analysis. We anticipate that untreated A53T animals will show significant spreading of aggregated alpha-synuclein pathology and pS129 staining, as well as some possible neurodegeneration; wt animals are also expected to show pS129 synuclein staining and synuclein aggregation, albeit less than that seen in the A53T background.

HeLa MKYP cells [1] = test: Human mitophagy assay (HeLa mKeima assay, FACS); conditions: read-out: Mitophagy induction EC50
Procedure, shortened: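 Mitophagy, read by FACS as the share of cells showing the lysosomal mtKeima emission shift, followed 6 h of 1 uM FCCP/oligomycin stimulation. Before that, HeLa MKYP cells spent 16 h with compound over a concentration range.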

[2] = Mitotoxicity / Mitotox safety margin (therapeutic window)
HeLa MKYP cells [3] = test: Cell death measured by DAPI staining, with 1 μM FCCP/oligomycin or no toxin (no FO)
Procedure, shortened: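 Cell death was read by DAPI staining after 6–6.5 h compound exposure in HeLa MKYP cells, either with 1 μM FCCP/oligomycin or without toxin. H2O2 served as the cell-death control.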

C[C@H]1CN([C@H]2CCc3ccccc3[C@@H]2Nc2ncnc3[nH]c(C(F)(F)F)cc23)CCO1 (single isomer, unassigned) [EP-0040503]
pS129 α-syn (250-12) in primary neuron culture (pS129 α-syn): reduces
pS129 α-syn (monomer) in primary neuron culture (pS129 α-syn): reduces
pS129 α-syn in primary neuron culture (pS129 α-syn): reduces
EC50 (HeLa MKYP cells [1]; Homo sapiens, HeLa): 130 nM
Mito-Safety Index (highest safe dose/EC50) [2]: 69.05
Highest safe dose (μM) (mitotox or cytotox) [2]: 9.1 µM
Highest safe dose (cytotoxicity; no FO; safe means DAPI+ <20%) (HeLa MKYP cells [3]): 25.0 µM
Max % death with 1 μM FO (HeLa MKYP cells [3]): 7.4%

c1ccc2c(c1)OC[C@H](C1CCOCC1)[C@H]2Nc1ncnc2[nH]c(C3CC3)cc12 (single isomer, unassigned) [EP-0040587]
pS129 α-syn (250-12) in primary neuron culture (pS129 α-syn): reduces
pS129 α-syn (monomer) in primary neuron culture (pS129 α-syn): reduces
pS129 α-syn in primary neuron culture (pS129 α-syn): reduces
EC50 (HeLa MKYP cells [1]; Homo sapiens, HeLa): 90 nM
Mito-Safety Index (highest safe dose/EC50) [2]: 230.81
Highest safe dose (μM) (mitotox or cytotox) [2]: 21.5 µM
Highest safe dose (cytotoxicity; no FO; safe means DAPI+ <20%) (HeLa MKYP cells [3]): 25.0 µM
Max % death with 1 μM FO (HeLa MKYP cells [3]): 21.5%

Fc1ccc2c(c1)OC[C@H](N1C[C@@H]3COC[C@H]3C1)[C@H]2Nc1ncnc2[nH]c(C3CC3)cc12 (single isomer, unassigned) [EP-0040874]
pS129 α-syn (250-12) in primary neuron culture (pS129 α-syn): reduces
pS129 α-syn (monomer) in primary neuron culture (pS129 α-syn): reduces
pS129 α-syn in primary neuron culture (pS129 α-syn): reduces
EC50 (HeLa MKYP cells [1]): 150 nM
Mito-Safety Index (highest safe dose/EC50) [2]: 94.72
Highest safe dose (μM) (mitotox or cytotox) [2]: 13.9 µM
Highest safe dose (cytotoxicity; no FO; safe means DAPI+ <20%) (HeLa MKYP cells [3]): 25.0 µM
Max % death with 1 μM FO (HeLa MKYP cells [3]): 14.4%

c1ccc2c(c1)OCC(N1CC3CCOC3C1)C2Nc1ncnc2[nH]c(C3CC3)cc12 (single isomer, unassigned) [EP-0041668]
pS129 α-syn (250-12) in primary neuron culture (pS129 α-syn): reduces
pS129 α-syn (monomer) in primary neuron culture (pS129 α-syn): reduces
pS129 α-syn in primary neuron culture (pS129 α-syn): reduces
EC50 (HeLa MKYP cells [1]): 140 nM
Highest safe dose (cytotoxicity; no FO; safe means DAPI+ <20%) (HeLa MKYP cells [3]): 25.0 µM
Max % death with 1 μM FO (HeLa MKYP cells [3]): 8.0%

c1ccc2c(c1)OCC(N1CC3CCOC3C1)C2Nc1ncnc2[nH]c(C3CC3)cc12 (single isomer, unassigned) [EP-0041670]
pS129 α-syn (250-12) in primary neuron culture (pS129 α-syn): reduces
pS129 α-syn (monomer) in primary neuron culture (pS129 α-syn): reduces
pS129 α-syn in primary neuron culture (pS129 α-syn): reduces
EC50 (HeLa MKYP cells [1]): 460 nM
Highest safe dose (cytotoxicity; no FO; safe means DAPI+ <20%) (HeLa MKYP cells [3]): 25.0 µM
Max % death with 1 μM FO (HeLa MKYP cells [3]): 5.4%

COC1CN([C@@H]2COc3ccccc3[C@H]2Nc2ncnc3[nH]c(C(F)(F)F)cc23)C1 [EP-0040850]
pS129 α-syn (250-12) in primary neuron culture (pS129 α-syn): reduces
pS129 α-syn (monomer) in primary neuron culture (pS129 α-syn): reduces
pS129 α-syn in primary neuron culture (pS129 α-syn): reduces
EC50 (HeLa MKYP cells [1]; Homo sapiens, HeLa): 240 nM
Mito-Safety Index (highest safe dose/EC50) [2]: 88.53
Highest safe dose (μM) (mitotox or cytotox) [2]: 21.4 µM
Highest safe dose (cytotoxicity; no FO; safe means DAPI+ <20%) (HeLa MKYP cells [3]): 25.0 µM
Max % death with 1 μM FO (HeLa MKYP cells [3]): 10.3%

COC1CN([C@H]2CCc3ccccc3[C@@H]2Nc2ncnc3[nH]c(C(F)(F)F)cc23)C1 [EP-0040857]
pS129 α-syn (250-12) in primary neuron culture (pS129 α-syn): reduces
pS129 α-syn (monomer) in primary neuron culture (pS129 α-syn): reduces
pS129 α-syn in primary neuron culture (pS129 α-syn): reduces
EC50 (HeLa MKYP cells [1]): 160 nM
Mito-Safety Index (highest safe dose/EC50) [2]: 116.38
Highest safe dose (μM) (mitotox or cytotox) [2]: 18.7 µM
Highest safe dose (cytotoxicity; no FO; safe means DAPI+ <20%) (HeLa MKYP cells [3]): 25.0 µM
Max % death with 1 μM FO (HeLa MKYP cells [3]): 17.0%

C[C@@H]1CN([C@H]2COc3cc(F)ccc3[C@@H]2Nc2ncnc3[nH]c(C4CC4)cc23)C[C@H](C)O1 [EP-0040948]
EC50 (HeLa MKYP cells [1]; Homo sapiens, HeLa): > 25000 nM
Highest safe dose (μM) (mitotox or cytotox) [2]: 25.0 µM
Highest safe dose (cytotoxicity; no FO; safe means DAPI+ <20%) (HeLa MKYP cells [3]): 25.0 µM
Max % death with 1 μM FO (HeLa MKYP cells [3]): 5.6%

C[C@@H]1CN([C@@H]2COc3cc(F)ccc3[C@H]2Nc2ncnc3[nH]c(C4CC4)cc23)C[C@H](C)O1 [EP-0040949]
EC50 (HeLa MKYP cells [1]; Homo sapiens, HeLa): 10 nM
Mito-Safety Index (highest safe dose/EC50) [2]: 114.83
Highest safe dose (μM) (mitotox or cytotox) [2]: 1.2 µM
Highest safe dose (cytotoxicity; no FO; safe means DAPI+ <20%) (HeLa MKYP cells [3]): 25.0 µM
Max % death with 1 μM FO (HeLa MKYP cells [3]): 21.1%

C[C@@H]1CN([C@@H]2COc3ccccc3[C@H]2Nc2ncnc3[nH]c(C(F)(F)F)cc23)CCO1 [EP-0040956]
EC50 (HeLa MKYP cells [1]; Homo sapiens, HeLa): 190 nM
Mito-Safety Index (highest safe dose/EC50) [2]: 52.10
Highest safe dose (μM) (mitotox or cytotox) [2]: 9.7 µM
Highest safe dose (cytotoxicity; no FO; safe means DAPI+ <20%) (HeLa MKYP cells [3]): 25.0 µM
Max % death with 1 μM FO (HeLa MKYP cells [3]): 24.7%

C[C@@H]1CN([C@@H]2COc3ccccc3[C@H]2Nc2ncnc3[nH]c(C4CC4)cc23)CCO1 [EP-0040958]
EC50 (HeLa MKYP cells [1]; Homo sapiens, HeLa): 60 nM
Mito-Safety Index (highest safe dose/EC50) [2]: 29.33
Highest safe dose (μM) (mitotox or cytotox) [2]: 1.7 µM
Highest safe dose (cytotoxicity; no FO; safe means DAPI+ <20%) (HeLa MKYP cells [3]): 25.0 µM
Max % death with 1 μM FO (HeLa MKYP cells [3]): 14.1%

C[C@H]1CN([C@@H]2COc3ccccc3[C@H]2Nc2ncnc3[nH]c(C(F)(F)F)cc23)CCO1 [EP-0040980]
EC50 (HeLa MKYP cells [1]; Homo sapiens, HeLa): 380 nM
Mito-Safety Index (highest safe dose/EC50) [2]: 50.83
Highest safe dose (μM) (mitotox or cytotox) [2]: 19.4 µM
Highest safe dose (cytotoxicity; no FO; safe means DAPI+ <20%) (HeLa MKYP cells [3]): 19.4 µM
Max % death with 1 μM FO (HeLa MKYP cells [3]): 14.7%

C[C@H]1CN([C@H]2COc3ccccc3[C@@H]2Nc2ncnc3[nH]c(C4CC4)cc23)CCO1 [EP-0040999]
EC50 (HeLa MKYP cells [1]; Homo sapiens, HeLa): 140 nM
Mito-Safety Index (highest safe dose/EC50) [2]: 105.78
Highest safe dose (μM) (mitotox or cytotox) [2]: 15.1 µM
Highest safe dose (cytotoxicity; no FO; safe means DAPI+ <20%) (HeLa MKYP cells [3]): 25.0 µM
Max % death with 1 μM FO (HeLa MKYP cells [3]): 12.1%

C[C@@H]1CN([C@H]2COc3cc(F)ccc3[C@@H]2Nc2ncnc3[nH]c(C4CC4)cc23)CCO1 [EP-0041122]
EC50 (HeLa MKYP cells [1]; Homo sapiens, HeLa): 50 nM
Mito-Safety Index (highest safe dose/EC50) [2]: 37.43
Highest safe dose (μM) (mitotox or cytotox) [2]: 2.0 µM
Highest safe dose (cytotoxicity; no FO; safe means DAPI+ <20%) (HeLa MKYP cells [3]): 16.7 µM
Max % death with 1 μM FO (HeLa MKYP cells [3]): 16.9%

C[C@H]1CN([C@@H]2COc3cc(F)ccc3[C@H]2Nc2ncnc3[nH]c(C4CC4)cc23)CCO1 [EP-0041125]
EC50 (HeLa MKYP cells [1]; Homo sapiens, HeLa): 160 nM
Mito-Safety Index (highest safe dose/EC50) [2]: 45.69
Highest safe dose (μM) (mitotox or cytotox) [2]: 7.4 µM
Highest safe dose (cytotoxicity; no FO; safe means DAPI+ <20%) (HeLa MKYP cells [3]): 25.0 µM
Max % death with 1 μM FO (HeLa MKYP cells [3]): 9.6%

CO[C@H]1CCN([C@H]2COc3ccccc3[C@@H]2Nc2ncnc3[nH]c(C(F)(F)F)cc23)C1 [EP-0041172]
EC50 (HeLa MKYP cells [1]; Homo sapiens, HeLa): 10 nM
Mito-Safety Index (highest safe dose/EC50) [2]: 121.36
Highest safe dose (μM) (mitotox or cytotox) [2]: 1.1 µM
Highest safe dose (cytotoxicity; no FO; safe means DAPI+ <20%) (HeLa MKYP cells [3]): 25.0 µM
Max % death with 1 μM FO (HeLa MKYP cells [3]): 8.4%

CO[C@@H]1CCN([C@H]2COc3ccccc3[C@@H]2Nc2ncnc3[nH]c(C4CC4)cc23)C1 [EP-0041451]
EC50 (HeLa MKYP cells [1]; Homo sapiens, HeLa): 10 nM
Mito-Safety Index (highest safe dose/EC50) [2]: 87.93
Highest safe dose (μM) (mitotox or cytotox) [2]: 0.7 µM
Highest safe dose (cytotoxicity; no FO; safe means DAPI+ <20%) (HeLa MKYP cells [3]): 25.0 µM
Max % death with 1 μM FO (HeLa MKYP cells [3]): 6.5%

CO[C@H]1CCN([C@H]2COc3ccccc3[C@@H]2Nc2ncnc3[nH]c(C4CC4)cc23)C1 [EP-0041517]
EC50 (HeLa MKYP cells [1]; Homo sapiens, HeLa): 30 nM
Mito-Safety Index (highest safe dose/EC50) [2]: 34.73
Highest safe dose (μM) (mitotox or cytotox) [2]: 1.1 µM
Highest safe dose (cytotoxicity; no FO; safe means DAPI+ <20%) (HeLa MKYP cells [3]): 25.0 µM
Max % death with 1 μM FO (HeLa MKYP cells [3]): 4.8%

COC[C@H]1CCN([C@H]2COc3ccccc3[C@@H]2Nc2ncnc3[nH]c(C4CC4)cc23)C1 [EP-0041546]
EC50 (HeLa MKYP cells [1]): 170 nM
Mito-Safety Index (highest safe dose/EC50) [2]: 21.52
Highest safe dose (μM) (mitotox or cytotox) [2]: 3.6 µM
Highest safe dose (cytotoxicity; no FO; safe means DAPI+ <20%) (HeLa MKYP cells [3]): 25.0 µM
Max % death with 1 μM FO (HeLa MKYP cells [3]): 6.6%
